Reference: ChEMBL document CHEMBL4152237, “Identification of novel β-lactams and pyrrolidinone derivatives as selective Histamine-3 receptor (H3R) modulators as possible anti-obesity agents” (Eur J Med Chem, 2018)
Calls of active or inactive are those of the source. The rule behind the calls is not given here.

Tests used:
[1] = molecular target: T1, 5-hydroxytryptamine receptor 2C (Homo sapiens) (UniProt P28335); assay: Agonist activity at human 5-HT2C expressed in HEK293 cells harboring luc2P/NFAT-RE plasmid at 10 uM after 6 to 8 hrs by luciferase reporter gene assay; type: functional, cell-based
T1 sequence (whole entry): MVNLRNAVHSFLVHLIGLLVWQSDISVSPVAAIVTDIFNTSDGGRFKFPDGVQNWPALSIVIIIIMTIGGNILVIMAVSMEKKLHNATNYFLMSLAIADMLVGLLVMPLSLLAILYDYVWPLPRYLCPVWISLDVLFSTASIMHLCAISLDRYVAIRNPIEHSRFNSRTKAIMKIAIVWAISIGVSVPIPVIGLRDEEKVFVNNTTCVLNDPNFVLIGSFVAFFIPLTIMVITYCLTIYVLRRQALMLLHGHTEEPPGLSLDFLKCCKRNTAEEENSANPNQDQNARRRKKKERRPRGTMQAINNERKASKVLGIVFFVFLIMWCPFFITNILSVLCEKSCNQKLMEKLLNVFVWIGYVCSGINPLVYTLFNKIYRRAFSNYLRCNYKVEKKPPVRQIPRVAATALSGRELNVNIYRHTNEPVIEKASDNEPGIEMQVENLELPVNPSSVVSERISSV

Histamine H3 receptor = Histamine H3 receptor (Homo sapiens, UniProt Q9Y5N1); assay: Agonist activity at human H3R expressed in HEK293 cells harboring glosensor-22F cAMP plasmid DNA assessed as inhibition of forskolin-stimulated cAMP accumulation at 10 uM preincubated with cells followed by forskolin addition measured after 10 mins by luminescence assay relative to control; type: functional, cell-based
Sequence of Histamine H3 receptor (Q9Y5N1 whole entry): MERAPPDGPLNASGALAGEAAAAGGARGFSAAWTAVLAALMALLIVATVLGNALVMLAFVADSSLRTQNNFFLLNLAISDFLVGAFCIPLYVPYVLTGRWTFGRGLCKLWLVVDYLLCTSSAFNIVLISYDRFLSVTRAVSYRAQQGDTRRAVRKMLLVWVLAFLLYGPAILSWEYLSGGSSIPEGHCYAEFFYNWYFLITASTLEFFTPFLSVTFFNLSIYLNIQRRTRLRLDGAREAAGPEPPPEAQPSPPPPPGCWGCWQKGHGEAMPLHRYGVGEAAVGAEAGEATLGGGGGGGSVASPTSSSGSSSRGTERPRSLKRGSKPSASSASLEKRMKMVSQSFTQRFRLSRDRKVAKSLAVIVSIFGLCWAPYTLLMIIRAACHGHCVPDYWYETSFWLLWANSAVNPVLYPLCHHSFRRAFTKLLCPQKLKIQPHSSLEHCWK

Structure (SMILES)	Activity [1]	inhibition (Histamine H3 receptor)
O=C1C=C[C@]23C(c4ccccc4)=CC(=O)N2[C@H](c2ccc(Br)cc2)C(=O)N[C@@H]3C1	inactive	inactive
O=C1C=C[C@]23C(c4ccccc4)=CC(=O)N2[C@H](c2ccc(Cl)c(F)c2)C(=O)N[C@@H]3C1	inactive	inactive
O=C1C=CC2(C=C1)C(c1ccccc1)=C(I)C(=O)N2C(C(=O)NC1CCCCC1)c1ccccc1Br (centres undefined)	inactive	inactive
O=C1C=CC2(C=C1)C(c1ccccc1)=C(I)C(=O)N2C(C(=O)NC1CCCCC1)c1ccc(Cl)cc1 (centres undefined)	inactive	inactive
COc1ccc(NC2(c3cc(C)cc(C)c3)C(=O)N(C(C)(C)C)C(=O)/C2=C/c2ccccc2)cc1 (centres undefined)	inactive	inactive
COC1=CC2(C=C(OC)C1=O)C(c1ccccc1)=C(I)C(=O)N2C(C(=O)NC1CCCCC1)c1ccc(OC)c(OC)c1OC (centres undefined)	inactive	inactive
COc1ccc(C(C(=O)NC(C)(C)C)N2C(=O)C(I)=C(c3ccccc3)C23C=CC(=O)C=C3)cc1C (centres undefined)	inactive	inactive
CC(C)(C)NC(=O)C(c1ccc(C#N)cc1)N1C(=O)C(I)=C(c2ccccc2)C12C=CC(=O)C=C2 (centres undefined)	inactive	inactive
COc1ccc(N2C(=O)/C(=C\c3ccccc3)C2(C(=O)NC(C)(C)C)c2ccc(Br)cc2)cc1 (centres undefined)	inactive	inactive
COc1cc(N2C(=O)C(=Cc3ccccc3)C2(C(=O)NC(C)(C)C)c2ccc(Br)cc2)cc(OC)c1OC (centres undefined)	inactive	inactive
O=C1C=C[C@]23C(c4ccccc4)=CC(=O)N2[C@H](c2ccc(OC(F)(F)F)cc2)C(=O)N[C@@H]3C1	inactive	inactive
COc1cc(NC2(c3cc(F)cc(F)c3)C(=O)N(C3CCCCC3)C(=O)/C2=C/c2ccccc2)cc(OC)c1OC (centres undefined)	inactive	inactive
O=C1C=C[C@]23C(c4ccccc4)=CC(=O)N2[C@H](c2ccc(F)cc2)C(=O)N[C@@H]3C1	inactive	inactive
COc1cc(N2C(=O)C(=Cc3ccccc3)C2(C(=O)NC(C)(C)C)c2cc(C)cc(C)c2)cc(OC)c1OC (centres undefined)	inactive	inactive
COc1cc(C(C(=O)NC2CCCCC2)N2C(=O)C(I)=C(c3ccccc3)C23C=CC(=O)C=C3)cc(OC)c1OC (centres undefined)	inactive	inactive
CC(C)(C)NC(=O)C(c1cc2c(cc1Br)OCO2)N1C(=O)C(I)=C(c2ccccc2)C12C=CC(=O)C=C2 (centres undefined)	inactive	inactive
COc1ccc(C2=C(c3ccccc3)C3(C=CC(=O)C=C3)N(C(C(=O)NC3CCCCC3)c3ccc(OC)c(C)c3)C2=O)cc1 (centres undefined)	inactive	inactive
COC1=CC2(C=C(OC)C1=O)C(c1ccccc1)=C(c1cccc3c1OCO3)C(=O)N2C(C(=O)NC1CCCCC1)c1cc(OC)c(OC)c(OC)c1 (centres undefined)	inactive	inactive

Further lines, results first:

Activity [1]	inhibition (Histamine H3 receptor)	Structure (SMILES)
inactive	inactive	Cc1cc(C(C(=O)NC(C)(C)C)N2C(=O)C(I)=C(c3ccccc3)C23C=CC(=O)C=C3)cc(C)c1O (centres undefined)
inactive	inactive	COc1ccc(N2C(=O)/C(=C\c3ccccc3)C2(C(=O)NC2CCCCC2)c2cc(F)cc(F)c2)cc1OC (centres undefined)
inactive	inactive	COC1=CC2(C=C(OC)C1=O)C(c1ccccc1)=C(c1ccc(OC)cc1)C(=O)N2C(C(=O)NC1CCCCC1)c1cc(OC)c(OC)c(OC)c1 (centres undefined)
inactive	inactive	COc1cc(OC)c(C(C(=O)NC2CCCCC2)N2C(=O)C(I)=C(c3ccccc3)C23C=CC(=O)C=C3)cc1OC (centres undefined)
inactive	inactive	COc1ccc([C@@H]2C(=O)N[C@@H]3CC(=O)C=C[C@@]34C(c3ccccc3)=CC(=O)N24)cc1
inactive	inactive	COc1ccc(NC2(c3ccc(Cl)c(F)c3)C(=O)N(C3CCCCC3)C(=O)/C2=C/c2ccccc2)cc1OC (centres undefined)
inactive	inactive	COc1ccc(C2=C(c3ccccc3)C3(C=CC(=O)C=C3)N(C(C(=O)NC(C)(C)C)c3ccccc3C)C2=O)cc1 (centres undefined)
inactive	inactive	COc1cc(NC2(c3ccc(Cl)c(F)c3)C(=O)N(C(C)(C)C)C(=O)/C2=C/c2ccccc2)cc(OC)c1OC (centres undefined)
inactive	inactive	Cc1ccc(C(C(=O)NC(C)(C)C)N2C(=O)C(I)=C(c3ccccc3)C23C=CC(=O)C=C3)cc1 (centres undefined)
inactive	inactive	O=C1C=C[C@]23C(c4ccccc4)=CC(=O)N2[C@H](c2cc(F)c(F)c(F)c2)C(=O)N[C@@H]3C1
inactive	inactive	O=C1C=CC2(C=C1)C(c1ccccc1)=C(I)C(=O)N2C(C(=O)NC1CCCCC1)c1cc2c(cc1Br)OCO2 (centres undefined)
inactive	inactive	COC1=CC2(C=C(OC)C1=O)C(c1ccccc1)=C(c1ccc(CO)cc1)C(=O)N2C(C(=O)NC1CCCCC1)c1ccc(OC)c(OC)c1OC (centres undefined)
inactive	inactive	COc1ccc(N2C(=O)C(=Cc3ccccc3)C2(C(=O)NC2CCCCC2)c2ccccc2)cc1OC (centres undefined)
inactive	inactive	COC1=CC2(C=C(OC)C1=O)C(c1ccccc1)=C(I)C(=O)N2C(C(=O)NC1CCCCC1)c1cc(OC)c(OC)c(OC)c1 (centres undefined)
inactive	inactive	CC(C)(C)NC(=O)C(c1ccccc1[N+](=O)O)N1C(=O)C(I)=C(c2ccccc2)C12C=CC(=O)C=C2 (centres undefined)
inactive	inactive	COc1ccc(NC2(c3ccc(F)cc3)C(=O)N(C3CCCCC3)C(=O)/C2=C/c2ccccc2)cc1OC (centres undefined)
inactive	inactive	COC1=CC2(C=C(OC)C1=O)C(c1ccccc1)=C(I)C(=O)N2C(C(=O)NC1CCCCC1)c1cccc([N+](=O)[O-])c1 (centres undefined)
inactive	inactive	COc1ccc(C(C(=O)NC2CCCCC2)N2C(=O)C(I)=C(c3ccccc3)C23C=CC(=O)C=C3)cc1C (centres undefined)
inactive	inactive	COc1ccc(NC2(c3cc(F)c(F)c(F)c3)C(=O)N(C(C)(C)C)C(=O)/C2=C/c2ccccc2)cc1 (centres undefined)
inactive	inactive	COc1ccc(N2C(=O)C(=Cc3ccccc3)C2(C(=O)NC(C)(C)C)c2ccc(OC)cc2)cc1 (centres undefined)
inactive	inactive	COc1ccc(NC2(c3ccc(Cl)c(F)c3)C(=O)N(C(C)(C)C)C(=O)/C2=C/c2ccccc2)cc1 (centres undefined)
inactive	inactive	O=C1C=C[C@]23C(c4ccccc4)=CC(=O)N2[C@H](c2cccc(Cl)c2)C(=O)N[C@@H]3C1
inactive	inactive	O=C1C=CC2(C=C1)C(c1ccccc1)=C(I)C(=O)N2C(C(=O)NC1CCCCC1)c1cccc([N+](=O)[O-])c1 (centres undefined)
inactive	inactive	COc1ccc(NC2(c3ccccc3)C(=O)N(C3CCCCC3)C(=O)/C2=C/c2ccccc2)cc1OC (centres undefined)
